Data as given in US5494932A, “Sulfonic stilbene derivatives in the treatment of viral disease” (Merrell Dow Pharmaceuticals Inc., priority 1991, dated 1996).
Read-outs that look alike come from different tables or passages of the source.

Experiments:
[1] = tested on: HIV-1 strain RF in C8166 cells; experiment: Acute HIV-1 (RF) infection of C8166 cells: syncytial and p24 antigen assays; assay type: cell-based, HIV-1 (human C8166 cells)
From the text: When evaluated in the human T cell line JM acutely infected with the GB8 virus, DIDS, H2 DIDS and SITS (Table I) suppressed virus-induced multinucleated giant cell formation (syncytia). […] We also examined the antiviral properties of these compounds in a second host-cell/virus system, i.e., the highly CD4+ C8166 cells infected with the Haitian strain of HIV-1, RF.
The cell lines used were the semi-mature human lymphoblastoid leukemia T cell line JM, the human T-lymphoblastoid C8166 cell line, the human cutaneous T cell lymphoma line H9 and, the human T cell transformed line MT-4. Stocks of HIV-1 strains RF and GB8 (kindly provided by Dr. Graham Farrar, Center for Applied Microbiological Research, Porton Dawn, England) were prepared from chronically infected H9 cells and acutely infected JM cells, respectively. Virus stocks consisted of cell-free growth medium (RPMI 1640 plus 10% fetal calf serum) containing freshly shed virus. Virus titres were determined by a standard plaque reduction assay.
Virus stocks (strains RF or GB8) were diluted into growth medium containing various concentrations of DIDS, H2 DIDS or SITS. The required number of cells were then immediately added and the virus allowed to absorb for 2 hours at 37° C. to give a multiplicity of infection (MOI) of 0.001 infectious units/cell. The virus-infected cells were pelleted, washed three times in phosphate buffered saline (PBS), and resuspended in fresh growth medium containing the appropriate concentrations of stilbene disulfonic acids. Cells were then distributed into 24-well culture plates (Falcon) and assayed as described below for virus infection. Alternatively, cells were first infected with HIV-1 (strains RF or GB8) for 2 hours at 37° C. at the above MOI. After extensive washing, cells were replated into fresh growth medium containing various concentrations of stilbene disulfonic acids. In the above experiments, syncytia were scored between 2 and 4 days postinfection (p.i.) in triplicate using an Olympus CK2 inverted microscope. The culture fluids were recovered between 3 and 5 days p.i., clarified by low speed centrifugation (2,000 rpm) for 5 minutes and the level of HIV-1 p24 core antigen in the supernatants was determined by p24 antigen ELISA (Coulter). The concentrations of stilbene disulfonic acids giving 50% inhibition of HIV-1 growth (IC50) were determined from the dose-response curves by linear regression analysis.

[2] = tested on: HIV-1 strain GB8 in JM cells; experiment: Established HIV-1 (GB8) infection of JM cells, post-infection addition: syncytia and p24 antigen; assay type: cell-based, HIV-1 (human T cell line JM); conditions: for activity at 100 µg/mL: Human immunodeficiency virus 1, 75 h; for relative order of antiviral potency: established HIV-1 infections
Experimental: The stilbene disulfonic acids blocked HIV-1 replication when the compounds were added within 2 hours of virus adsorption, i.e., prior to virus penetration, and the cells were cultured in the presence of the inhibitors. These compounds were next examined for antiviral activity at later stages of the infection process. At a MOI of 0.01 infectious units/cell (GB8 virus), viral glycoproteins appear at the surface of JM cells by 24 hours post-infection (p.i.) and initiate fusion with neighboring CD4^+ cells; the syncytial numbers show a good correlation with the production of cell-free virus (Tyms et al., 1990).
In post-treatent experiments, cells were first infected with HIV-1 strain RF or GB8 for 2 hours at 37° C. at a MOI of 0.01 and allowed to grow for either 24 or 43 hours before replating into fresh growth medium containing 100 μg/ml of DIDS, H2 DIDS or SITS. Syncytia were then scored at 52 and 68 hours p.i. in triplicate, and p24 viral core antigen in culture fluids were assayed at 75 hours p.i. as described above.
Protocol: JM cells were infected with HIV at a multiplicity of infection of 0.00025 syncytial forming units per cell. Virus adsorption was at room temperature for one hour. The cells were then washed three times and distributed in wells of a tissue culture plate at a concentration of 2×10^5 cells/well. Either DIDS, SITS or H2 DIDS (all at 100 μg/ml) were added to wells at 0, 24, 43 and 51 hours post-infection. As virus controls some wells had no drug added. Syncytia were scored at 43, 52 and 68 hours post-infection. The cell-free supernatant fluids of the virus control wells were harvested after 33, 43, 51, 68 and 75 hours post-infection. All other wells were harvested 75 hours post-infection. The supernatant fluid was then assayed for p24 viral core antigen.

HSV 2 = experiment: Plaque reduction assay, HSV 2; assay type: cell-based; conditions: for activity at 0.1 µg/mL / activity at 1 µg/mL / activity at 10 µg/mL / activity at 100 µg/mL: read-out: Mean % VC (plaques)
Experimental: Protocol: Plaque reduction assay. Treatment after adsorption during incubation.

[3] = tested on: HIV-1 strain GB8 in JM cells; experiment: Established HIV-1 (GB8) infection of JM cells, post-infection addition: syncytia and p24 antigen; assay type: cell-based, HIV-1 (human T cell line JM); conditions: 100 μg/ml
[4] = Human immunodeficiency virus 1, RF strain in C8166 cells, read-out: P24 Antigen % Virus Control (values in parenthesis)
[5] = 100 μg/ml, time of addition 0 hours
[6] = 100 μg/ml, time of addition 0 h p.i.
[7] = 100 μg/ml, time of addition 24h
[8] = 100 μg/ml, time of addition 24 hours
[9] = 100 μg/ml, time of addition 24 h p.i.
[10] = 100 μg/ml, time of addition 43h
[11] = 100 μg/ml, time of addition 43 hours
[12] = 100 μg/ml, time of addition 43 h p.i.
[13] = 100 μg/ml, time of addition 51h
[14] = 100 μg/ml, time of addition 51 hours
[15] = read-out: P24 Antigen (75 hours post-infection), %, 100 μg/ml, time of addition 0 hours
[16] = read-out: P24 Antigen (75 hours post-infection), %, 100 μg/ml, time of addition 24 hours
[17] = read-out: P24 Antigen (75 hours post-infection), %, 100 μg/ml, time of addition 43 hours
[18] = read-out: P24 Antigen (75 hours post-infection), %, 100 μg/ml, time of addition 51 hours

CC(=O)Nc1ccc(C=Cc2ccc(N=C=S)cc2S(=O)(=O)O)c(S(=O)(=O)O)c1 [SITS, 4-acetamido-4'-isothiocyanatostilbene-2,2'-disulfonic acid]
activity in syncytial and p24 antigen assays ([1]; 100 μg/ml, C8166 cells infected with RF): inactive | activity at 50 µg/mL [1, 4]: > 100% | activity at 100 µg/mL [1, 4]: > 100% | activity at 200 µg/mL [1, 4]: > 100% | Mean Syncytia 68 hrs ([2]; 100 μg/ml, time of addition 0h): 27 | P24 Antigen (75 hours post-infection) [2, 5]: 8680 pg/mL | P24 Antigen 75 h [2, 6]: 6.7 ng/mL | Syncytia at 52h [2, 6]: 4 | Syncytia at 68h [2, 6]: 27 | Mean Syncytia 68 hrs [2, 7]: 77 | P24 Antigen (75 hours post-infection) [2, 8]: 21669 pg/mL | P24 Antigen 75 h [2, 9]: 21.7 ng/mL | Syncytia at 52h [2, 9]: 35 | Syncytia at 68h [2, 9]: 77 | Mean Syncytia 51 hrs [2, 10]: 59 | Mean Syncytia 68 hrs [2, 10]: As VC | P24 Antigen (75 hours post-infection) [2, 11]: 49245 pg/mL | P24 Antigen 75 h [2, 12]: 49.3 ng/mL | Syncytia at 52h [2, 12]: 59 | Syncytia at 68h [2, 12]: 80 | Mean Syncytia 68 hrs [2, 13]: As VC | P24 Antigen (75 hours post-infection) [2, 14]: 53830 pg/mL | activity at 100 µg/mL ([2]; 100 μg/ml, time of addition 24 h p.i., read-out: P24 Antigen 75 h, % (drug-free medium 100%)): 18.6% | activity at 100 µg/mL ([2]; 100 μg/ml, time of addition 43 h p.i., read-out: P24 Antigen 75 h, % (drug-free medium 100%)): 42.3% | activity at 100 µg/mL ([2]; read-out: P24 Antigen 75 h, % (drug-free medium 100%), 100 μg/ml, time of addition 0 h p.i.): 7.4% | activity at 100 µg/mL [2, 15]: 7.4% | activity at 100 µg/mL [2, 16]: 18.6% | activity at 100 µg/mL [2, 17]: 42.3% | activity at 100 µg/mL [2, 18]: 47.2% | relative order of antiviral potency [2]: DIDS>H2 DIDS>>SITS | anti-syncytial activity relative to virus control ([2]; established infection): no anti-syncytial activity | p24 antigen (in words) ([2]; established infection): slightly reduced | Plaque counts (HSV 2; 0.1 μg/ml, first count): 34 | Plaque counts (HSV 2; 0.1 μg/ml, second count): 26 | Plaque counts (HSV 2; 1 μg/ml, first count): 28 | Plaque counts (HSV 2; 1 μg/ml, second count): 25 | Plaque counts (HSV 2; 1 μg/ml, third count): 23 | Plaque counts (HSV 2; 10 μg/ml, first count): 25 | Plaque counts (HSV 2; 10 μg/ml, second count): 25 | Plaque counts (HSV 2; 10 μg/ml, third count): 24 | Plaque counts (HSV 2; 100 μg/ml, first count): 16 | Plaque counts (HSV 2; 100 μg/ml, second count): 13 | activity at 0.1 µg/mL (HSV 2): > 100% | activity at 1 µg/mL (HSV 2): 100% | activity at 10 µg/mL (HSV 2): 100% | activity at 100 µg/mL (HSV 2): 63% | Mean Syncytia 51 hrs ([3]; time of addition 0h): 4 | Mean Syncytia 51 hrs ([3]; time of addition 24h): 35

O=S(=O)(O)c1cc(N=C=S)ccc1C=Cc1ccc(N=C=S)cc1S(=O)(=O)O [DIDS, 4,4'-diisothiocyanatostilbene-2,2'-disulfonic acid]
HIV-1 infection ([1]; C8166 cells infected with RF): blocked HIV-1 infection | activity at 25 µg/mL ([1]; Human immunodeficiency virus 1, 25 µg/mL, RF strain in C8166 cells, read-out: P24 Antigen % Virus Control (values in parenthesis)): 100% | activity at 50 µg/mL [1, 4]: 83% | activity at 100 µg/mL [1, 4]: 33% | activity at 200 µg/mL [1, 4]: 4.8% | syncytia by 68 hours p.i. ([2]; 100 μg/ml, added 43 hours p.i.): completely absent | fusion relative to virus control ([2]; 100 μg/ml, addition 24 hours p.i., scored at 52 and 68 hours p.i.): completely suppressed fusion | Mean Syncytia 68 hrs ([2]; 100 μg/ml, time of addition 0h): 0 | P24 Antigen (75 hours post-infection) [2, 5]: Neg | P24 Antigen 75 h [2, 6]: Neg | Syncytia at 52h [2, 6]: 0 | Syncytia at 68h [2, 6]: 0 | Mean Syncytia 68 hrs [2, 7]: 0 | P24 Antigen (75 hours post-infection) [2, 8]: Neg | P24 Antigen 75 h [2, 9]: Neg | Syncytia at 52h [2, 9]: 0 | Syncytia at 68h [2, 9]: 0 | Mean Syncytia 51 hrs [2, 10]: 19 | Mean Syncytia 68 hrs [2, 10]: 0 | P24 Antigen (75 hours post-infection) [2, 11]: 2793 pg/mL | P24 Antigen 75 h [2, 12]: 2.8 ng/mL | Syncytia at 52h [2, 12]: 19 | Syncytia at 68h [2, 12]: 0 | Mean Syncytia 68 hrs [2, 13]: 25 | P24 Antigen (75 hours post-infection) [2, 14]: 49050 pg/mL | activity at 100 µg/mL [2, 15]: > 1% | activity at 100 µg/mL [2, 16]: < 1% | activity at 100 µg/mL [2, 17]: 2.4% | activity at 100 µg/mL [2, 18]: 42% | relative order of antiviral potency [2]: DIDS>H2 DIDS>>SITS | Plaque counts (HSV 2; 0.1 μg/ml, first count): 37 | activity at 0.1 µg/mL (HSV 2; 0.1 μg/ml): 68% | Plaque counts (HSV 2; 0.1 μg/ml, second count): 40 | Plaque counts (HSV 2; 1 μg/ml, first count): 31 | activity at 1 µg/mL (HSV 2; 1 μg/ml): 61% | Plaque counts (HSV 2; 1 μg/ml, second count): 33 | Plaque counts (HSV 2; 1 μg/ml, third count): 39 | Plaque counts (HSV 2; 10 μg/ml, first count): 25 | activity at 10 µg/mL (HSV 2; 10 μg/ml): 44% | Plaque counts (HSV 2; 10 μg/ml, second count): 25 | Plaque counts (HSV 2; 10 μg/ml, third count): 25 | Plaque counts (HSV 2; 100 μg/ml, first count): 0 | activity at 100 µg/mL (HSV 2; 100 μg/ml): 0% | Plaque counts (HSV 2; 100 μg/ml, second count): 0 | Plaque counts (HSV 2; 100 μg/ml, third count): 0 | Mean Syncytia 51 hrs ([3]; time of addition 0h): 0 | Mean Syncytia 51 hrs ([3]; time of addition 24h): 0
